Consider two compounds from ChEMBL document CHEMBL4619712, “Double-component diazeniumdiolate derivatives as anti-cancer agents” (Bioorg Med Chem, 2020).

One data set concerns CCRF-CEM. The data set can be described thus: Anticancer activity against human CCRF-CEM cells assessed as inhibition of cell growth after 72 hrs by MTT or MTS assay. The class given is functional, cell-based.
Data set [1] in a line: Prodrug conversion assessed as Escherichia coli GST catalyzed NO release at 1 uM measured after 5 hrs in presence of GSH by DAF-FM DA reagent based fluorescence spectrophotometric analysis. The class given is ADME.
For another data set, the system named is A549. The data set can be described thus: Anticancer activity against human A549 cells assessed as inhibition of cell growth after 72 hrs by MTT or MTS assay. In kind it is functional, cell-based. To be noted: A549, 72 h.
In a further data set the test system is MDA-MB-231. The data set can be described thus: Anticancer activity against human MDA-MB-231 cells assessed as inhibition of cell growth after 72 hrs by MTT or MTS assay. In kind it is functional, cell-based. The settings on record: MDA-MB-231, 72 h.
The subject of another data set is BT-474. The data set can be described thus: Anticancer activity against human BT474 cells assessed as inhibition of cell growth after 72 hrs by MTT or MTS assay. In kind it is functional, cell-based. The settings on record: BT-474, 72 h.
The next data set deals with Jurkat E6.1. The data set can be described thus: Anticancer activity against human Jurkat E6-1 cells assessed as inhibition of cell growth after 72 hrs by MTT or MTS assay. In kind it is functional, cell-based. To be noted: Jurkat E6.1, 72 h.

In the case of `O=[N+]([O-])c1ccc(O/N=[N+](\[O-])N2CCN(CCN3CCN(/[N+]([O-])=N/Oc4ccc([N+](=O)[O-])cc4[N+](=O)[O-])CC3)CC2)c([N+](=O)[O-])c1`, the half-inhibitory concentration (IC50) in the data set with CCRF-CEM worked out at 2.64 µM; with A549, 17.1 µM; with MDA-MB-231 it was 17.6 µM; in the data set with BT-474 it was 10.7 µM; with Jurkat E6.1 it was 3.71 µM. For the same compound, the “fold change (FC)” value in data set [1] stood at 2.
Turning to `O=[N+]([O-])c1ccc(O/N=[N+](\[O-])N2CCN(CCCN3CCN(/[N+]([O-])=N/Oc4ccc([N+](=O)[O-])cc4[N+](=O)[O-])CC3)CC2)c([N+](=O)[O-])c1`, the IC50 in the data set with CCRF-CEM is 3.73 µM; in the data set on A549 it was 18.8 µM; with MDA-MB-231 it was more than 20 µM; in the data set with BT-474, 10.8 µM; in the data set with Jurkat E6.1, 4.06 µM. Besides, the “fold change (FC)” value in data set [1] is 2.
